How the values were obtained:
Tie2 = Tie2 (Homo sapiens, UniProt Q02763); experiment: Tie-2-Kinase HTRF-Assay without kinase preactivation; assay type: biochemical; set-up: fusion protein of GST and the intracellular domains of Tie-2; GST; made in house; host or cells: insect cells (Hi-5); conditions: GST-Tie-2 intracellular domains, 10 μM ATP, read-out: Tie2 activity (assay 2)
Source text: Tie2-inhibitory activity of compounds of the present invention was quantified employing two Tie2 HTRF assay as described in the following paragraphs.
A recombinant fusion protein of GST and the intracellular domains of Tie-2, expressed in insect cells (Hi-5) and purified by Glutathion-Sepharose affinity chromatography was used as kinase. Alternatively, commercially available GST-Tie2-fusion protein (Upstate Biotechnology, Dundee, Scotland) can be used As substrate for the kinase reaction the biotinylated peptide biotin-Ahx-EPKDDAYPLYSDFG (C-terminus in amid form) was used which can be purchased e.g. from the company Biosynthan GmbH (Berlin-Buch, Germany). Detection of phosphorylated product is achieved specifically by a trimeric detection complex consisting of the phosphorylated substrate, streptavidin-XLent (SA-XLent) which binds to biotin, and Europium Cryptate-labeled anti-phosphotyrosine antibody PT66 which binds to phosphorylated tyrosine.
Tie-2 (3.5 ng/measurement point) was incubated for 60 min at 22° C. in the presence of 10 μM adenosine-tri-phosphate (ATP) and 1 μM substrate peptide (biotin-Ahx-EPKDDAYPLYSDFG-NH2) with different concentrations of test compounds (0 μM and concentrations in the range 0.001-20 μM) in 5 μl assay buffer [50 mM Hepes/NaOH pH 7, 10 mM MgCl2, 0.5 mM MnCl2, 1.0 mM dithiothreitol, 0.01% NP40, protease inhibitor mixture (“Complete w/o EDTA” from Roche, 1 tablet per 2.5 ml), 1% (v/v) dimethylsulfoxide]. The reaction was stopped by the addition of 5 μl of an aqueous buffer (25 mM Hepes/NaOH pH 7.5, 0.28% (w/v) bovine serum albumin) containing EDTA (90 mM) and the HTRF (Homogeneous Time Resolved Fluorescence) detection reagents streptavidine-XLent (0.2 μM, from Cis Biointernational, Marcoule, France) and PT66-Eu-Chelate (0.3 ng/μl; a europium-chelate labelled anti-phospho-tyrosine antibody from Perkin Elmer).
(§1) The resulting mixture was incubated 1 h at 22° C. to allow the binding of the biotinylated phosphorylated peptide to the streptavidine-XLent and the PT66-Eu-Chelate. Subsequently the amount of phosphorylated substrate peptide was evaluated by measurement of the resonance energy transfer from the PT66-Eu-Chelate to the streptavidine-XLent. Therefore, the fluorescence emissions at 620 nm and 665 nm after excitation at 350 nm was measured in a HTRF reader, e.g. a Rubystar (BMG Labtechnologies, Offenburg, Germany) or a Viewlux (Perkin-Elmer). The ratio of the emissions at 665 nm and at […] was taken as the measure for the amount of phosphorylated substrate peptide. The data were normalised (enzyme reaction without inhibitor=0% inhibition, all other assay components but no enzyme=100% inhibition) and IC50 values were calculated by a 4 parameter fit using an inhouse software.

human Aurora-C = biological target: T1, human Aurora-C (Homo sapiens, UniProt Q9UQB9); experiment: Aurora-C Kinase Assay; assay type: biochemical; conditions: Aurora-C HTRF, 10 μM ATP; read-out: Aurora C activity (assay 7)
T1 construct: GST; made in house; host or cells: transiently transfected HEK293 cells (the print adds '(Sf9)', which contradicts this)
T1 sequence (Q9UQB9 1-309): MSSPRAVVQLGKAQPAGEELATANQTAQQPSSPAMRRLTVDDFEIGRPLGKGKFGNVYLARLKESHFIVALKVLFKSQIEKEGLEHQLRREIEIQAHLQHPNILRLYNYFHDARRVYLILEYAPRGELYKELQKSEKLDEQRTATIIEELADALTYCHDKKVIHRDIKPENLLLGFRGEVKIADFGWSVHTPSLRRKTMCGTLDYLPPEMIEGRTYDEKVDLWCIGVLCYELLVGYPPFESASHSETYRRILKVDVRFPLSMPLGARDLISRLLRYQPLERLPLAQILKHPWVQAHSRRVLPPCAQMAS
Source text: Assay 7: Aurora-C Kinase Assay
Aurora-C inhibitory activity of compounds of the present invention was quantified employing the Aurora-C HTRF assay as described in the following paragraphs.
Recombinant fusion protein of GST and human Aurora-C was expressed in transiently transfected HEK293 cells […] and purified by Glutathion-Sepharose affinity chromatography. As substrate for the kinase reaction biotinylated peptide biotin-Ttds-FMRLRRLSTKYRT (C-terminus in amid form) was used which can be purchased e.g. form the company JERINI peptide technologies (Berlin, Germany). Aurora-C was incubated for 60 min at 22° C. in the presence of different concentrations of test compounds in 5 μl assay buffer [25 mM Hepes/NaOH pH 7.4, 0.5 mM MnCl2, 2.0 mM dithiothreitol, 0.1 mM sodium ortho-vanadate, 10 μM adenosine-tri-phosphate (ATP), […] substrate, 0.01% (v/v) TritonX-100 (Sigma), 0.05% (w/v) bovine serum albumin, 1% (v/v) dimethylsulfoxide]. The concentration of Aurora-C was adjusted depending of the activity of the enzyme lot and was chosen appropriate to have the assay in the linear range, typical concentrations were in the range of 0.3 nM. The reaction was stopped by the addition of 5 μl of a solution of HTRF detection reagents (0.2 μM streptavidine-XLent and 1.4 nM Anti-Phospho-(Ser/Thr) Akt substrate-Cryptate (C is biointernational, France, product no. 61PO2KAE), a labeled Phospho-(Ser/Thr) Akt substrate antibody [product #9611B, Cell Signaling Technology, Danvers, Mass., USA] labeled with Europium Cryptate, in an aqueous EDTA-solution (40 mM EDTA, 400 mM KF, 0.05% (w/v) bovine serum albumin in 25 mM HEPES/NaOH pH 7.0).
as §1, with “Anti-Phospho-(Ser/Thr) Akt substrate-Cryptate.” for “PT66-Eu-Chelate.”, “substrate” for “substrate peptide”, “Prot-A-EuK” for “PT66-Eu-Chelate”, “substrate.” for “substrate peptide.”

Tie2, sequence (Q02763 770-1124 limits assumed): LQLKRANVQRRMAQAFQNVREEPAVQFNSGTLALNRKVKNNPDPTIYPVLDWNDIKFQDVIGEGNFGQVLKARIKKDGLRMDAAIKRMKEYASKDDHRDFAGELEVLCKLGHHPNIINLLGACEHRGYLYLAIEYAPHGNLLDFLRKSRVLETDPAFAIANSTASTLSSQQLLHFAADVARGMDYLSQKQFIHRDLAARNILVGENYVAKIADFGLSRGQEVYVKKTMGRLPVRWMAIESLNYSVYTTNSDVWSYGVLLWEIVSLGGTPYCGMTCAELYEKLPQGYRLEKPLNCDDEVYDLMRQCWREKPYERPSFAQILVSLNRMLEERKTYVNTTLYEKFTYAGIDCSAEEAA

SMILES | IC50 (Tie2) | IC50 (human Aurora-C)
Cc1ccccc1C#Cc1cnc(Nc2ccc(S(C)(=N)=O)cc2)nc1N[C@H](C)CO (mixture of isomers) [Example 1.3] | < 500 nM | > 10000 nM
C[C@H](CO)Nc1nc(Nc2cccc(S(C)(=N)=O)c2)ncc1C#Cc1cccc(O)c1 (mixture of isomers) [Example 1.18, (RS)-S-(3-[4-((R)-2-Hydroxy-1-methyl-ethylamino)-5-(3-hydroxy-phenylethynyl)-pyrimidin-2-ylamino]-phenyl)-S-methylsulfoximide] | < 500 nM | > 10000 nM
C[C@H](CO)Nc1nc(Nc2ccc(S(C)(=N)=O)cc2)ncc1C#Cc1ccc(F)cc1 (mixture of isomers) [Example 1.9, (RS)-S-(4-[5-(4-Fluoro-phenyl-ethynyl)-4-((R)-2-hydroxy-1-methyl-ethylamino)-pyrimidin-2-ylamino]-phenyl)-S-methylsulfoximide] | < 500 nM | > 10000 nM
CCc1ccc(C#Cc2cnc(Nc3ccc(S(C)(=N)=O)cc3)nc2N[C@H](C)CO)cc1 (mixture of isomers) [Example 1.8, (RS)-S-(4-[5-(4-Ethyl-phenylethynyl)-4-((R)-2-hydroxy-1-methyl-ethylamino)-pyrimidin-2-ylamino]-phenyl)-S-methylsulfoximide] | < 500 nM | > 10000 nM
C[C@H](CO)Nc1nc(Nc2ccc(S(C)(=N)=O)cc2)ncc1C#Cc1ccccc1 (mixture of isomers) [Example 1.2, (RS)-S-(4-[4-((R)-2-Hydroxy-1-methyl-ethylamino)-5-(phenylethynyl)-pyrimidin-2-ylamino]-phenyl)-S-methylsulfoximide] | < 500 nM | > 10000 nM
CCOC(=O)N=S(C)(=O)c1ccc(Nc2ncc(C#Cc3cccc(O)c3)c(N[C@H](C)CO)n2)cc1 (mixture of isomers) [Example 2.7] | < 500 nM | 1000 to 10000 nM
CS(=N)(=O)c1cccc(Nc2ncc(C#Cc3cccc(O)c3)cn2)c1 (racemic) [Example 4.2, (RS)—S-(3-[5-(3-hydroxy-phenylethynyl)-pyrimidin-2-ylamino]-phenyl)-S-methylsulfoximide] | < 500 nM | > 10000 nM
COc1ccc(C#Cc2cnc(Nc3cccc(S(C)(=N)=O)c3)nc2N[C@H](C)CO)cc1 (mixture of isomers) [Example 1.17, (RS)-S-(3-[4-((R)-2-Hydroxy-1-methyl-ethylamino)-5-(4-methoxy-phenylethynyl)-pyrimidin-2-ylamino]-phenyl)-S-methylsulfoximide] | < 500 nM | > 10000 nM
CCNc1nc(Nc2ccc(S(C)(=N)=O)cc2)ncc1C#Cc1ccc(F)c(C)c1 (racemic) [Example 1.24, (RS)-S-(4-[4-ethylamino-5-(4-fluoro-3-methyl-phenyl-ethynyl)-pyrimidin-2-ylamino]-phenyl)-S-methylsulfoximide] | < 500 nM | 1000 to 10000 nM
Cc1ccccc1C#Cc1cnc(Nc2cccc(S(C)(=N)=O)c2)nc1N[C@H](C)CO (mixture of isomers) [Example 1.19, (RS)-S-(3-[4-((R)-2-Hydroxy-1-methyl-ethylamino)-5-(2-methyl-phenylethynyl)-pyrimidin-2-ylamino]-phenyl)-S-methylsulfoximide] | < 500 nM | > 10000 nM
CCNc1nc(Nc2ccc(S(C)(=N)=O)cc2)ncc1C#Cc1ccc(OC)cc1 (racemic) [Example 1.26, (RS)-S-(4-[4-ethylamino-5-(4-methoxy-phenyl-ethynyl)-pyrimidin-2-ylamino]-phenyl)-S-methylsulfoximide] | < 500 nM | 1000 to 10000 nM
Cc1cc(C#Cc2cnc(Nc3cccc(S(C)(=N)=O)c3)nc2N[C@H](C)CO)ccc1F (mixture of isomers) [Example 1.20, (RS)-S-(3-[5-(4-Fluoro-3-methyl-phenyl-ethynyl)-4-((R)-2-hydroxy-1-methyl-ethylamino)-pyrimidin-2-ylamino]-phenyl)-S-methylsulfoximide] | < 500 nM | > 10000 nM
Cc1cc(C#Cc2cnc(Nc3ccc(S(C)(=N)=O)cc3)nc2N[C@H](C)CO)ccc1F (mixture of isomers) [Example 1.13, (RS)-S-(4-[5-(4-Fluoro-3-methyl-phenyl-ethynyl)-4-((R)-2-hydroxy-1-methyl-ethylamino)-pyrimidin-2-ylamino]-phenyl)-S-methylsulfoximide] | < 500 nM | > 10000 nM
COc1ccc(C#Cc2cnc(Nc3ccc(S(C)(=N)=O)cc3)nc2N[C@H](C)CO)cc1 (mixture of isomers) [Example 1.1, (RS)—S-(4-[4-((R)-2-Hydroxy-1-methyl-ethylamino)-5-(4-methoxy-phenylethynyl)-pyrimidin-2-ylamino]-phenyl)-S-methylsulfoximide] | < 500 nM | > 10000 nM
Cc1ccc(C#Cc2cnc(Nc3ccc(S(C)(=N)=O)cc3)nc2N[C@H](C)CO)cc1 (mixture of isomers) [Example 1.5] | < 500 nM | > 10000 nM
CC(C)NC(=O)N=S(C)(=O)c1cccc(Nc2ncc(C#Cc3cccc(O)c3)c(N[C@H](C)CO)n2)c1 (mixture of isomers) [Example 1.15, (RS)-S-(3-[4-((R)-2-Hydroxy-1-methyl-ethylamino)-5-(3-hydroxy-phenylethynyl)-pyrimidin-2-ylamino]-phenyl)-N-(isopropylcarbamoyl)-S-methylsulfoximide] | < 500 nM | > 10000 nM

Source: patent publication US8642611B2, “Alkynylpyrimidines and salts thereof, pharmaceutical compositions comprising same, methods of preparing same and uses of same” (Bayer Intellectual Property GmbH, priority 2007, dated 2014)
